Results as given in US20230142274A1 (SIMCERE PHARMACEUTICAL CO., LTD., priority 2020, published 2023).

These compounds were tested on Daudi cells (assay: Inhibition of human Daudi lymphoma cell proliferation (Cell-Titer Glo)). Conditions: Homo sapiens, 72 h, 3 days incubation, read-out: Anti-Proliferative Activity Against Daudi cells IC50.
Type: cell-based
Experimental: Introduction of the experimental principle: After the RAD51 inhibitor to be tested was co-incubated with cancer cells for a period of time, the influence of the test compound on cell proliferation was measured by a method for counting cell proliferation based on the quantitative measurement of intracellular ATP content.
Materials and Cells: Daudi cells were purchased from ATCC; fetal bovine serum, 1640 medium and penicillin-streptomycin were purchased from Gibco Inc. (U.S.), 96-well plates were purchased from Corning Inc. (U.S.), and Cell-Titer Glo reagent was purchased from Promega Corporation (U.S.).
Cell culture: Daudi cells were cultured in 1640 culture medium containing 10% fetal bovine serum and 1% penicillin-streptomycin at 37° C. in an atmosphere containing 5% CO2. Cells in logarithmic growth phase could be used for experiments.
Assay of cell proliferation and viability: Cell-Titer Glo reagent was used to measure the inhibitory activities of the compounds on the proliferation of Daudi cell strain. The concentration of cells was adjusted, and the cells were seeded in a 96-well plate and cultured at 37° C. in an atmosphere containing 5% CO2 for 24 hours. The powder of the compound was dissolved in 100% DMSO to form a 10 mM solution. 10 μl of the solution of the compound was aspirated and transferred into a 96-well compound plate containing 20 μl of DMSO solution for 3-fold dilution and was then formulated into 10 serial dilutions. Thereafter, 2 μl of the solution of the compound was aspirated from the corresponding well and added correspondingly into a 96-well intermediate compound dilution plate containing 78 μl of complete culture medium in each well. The resultant was mixed well, and the plate was centrifuged at 1000 rpm for 1 minute. Finally, 10 μl of the solution of the compound was aspirated from the corresponding well of the 96-well intermediate compound dilution plate, and transferred into the corresponding well of the cell culture plate containing 90 μl of complete culture medium. The final concentration of DMSO was 0.25%. After the addition of the compound, the cells were continued to be incubated for 3 days at 37° C. in an atmosphere containing 5% CO2. Cell-Titer Glo reagent was added to measure cell viability.
% Compound inhibition was calculated and IC50 of the compound was filled;
% Compound inhibition=1−100%×(Signal−Bottom)/(Top−Bottom)

Row | Compound | IC50 [µM]
1 | CC(=O)Nc1ccc(-c2cnc([C@H]3CC[C@H](NC(=O)OC(C)C)CC3)s2)c(S(=N)(=O)C2CC2)c1 (stereo partly drawn) [Example 67, isopropyl trans-(4-(5-(4-acetylamino-2-(cyclopropanesulfonimidoyl)phenyl]thiazol-2-yl)cyclohexyl)carbamate] | 2.6
2 | CC(C)OC(=O)N[C@H]1CC[C@H](c2ncc(-c3ccc(Nc4cn[nH]c4)cc3S(=O)(=O)C3CC3)s2)CC1 [Example 71] | 0.016
3 | CC(C)OC(=O)N[C@H]1CC[C@H](c2ncc(-c3ccc(N4CCCO4)cc3S(=O)(=O)C3CC3)s2)CC1 [Example 73, isopropyl trans-N-[4-[5-(2-cyclopropylsulfonyl-4-isoxazolidin-2-yl-phenyl)thiazol-2-yl]cyclohexyl]carbamate] | 0.2
4 | CC(C)OC(=O)N[C@H]1CC[C@H](c2ncc(-c3ccc(NC(=O)C4CC4)cc3S(=O)(=O)C3CC3)s2)CC1 [Example 74, isopropyl trans-(4-(5-(4-(cyclopropanecarboxamido)-2-(cyclopropylsulfonyl)phenyl)thiazol-2-yl)cyclohexyl)carbamate] | 0.09
5 | CC(C)OC(=O)NC1CCC(c2ncc(-c3ccc(Nc4ccc(F)cn4)cc3S(=O)(=O)C3CC3)s2)CC1 (stereo not drawn) [Example 75, isopropyl trans-N-[4-[5-[2-cyclopropylsulfonyl]-4-[(5-fluoro-2-pyridyl)amino]phenyl]thiazol-2-yl]cyclohexyl]carbamate] | 0.022
6 | CC(C)OC(=O)N[C@H]1CC[C@H](c2ncc(-c3ccc(Nc4cccnc4)cc3S(=O)(=O)C3CC3)s2)CC1 [Example 76, isopropyl trans-N-[4-[5-[2-cyclopropylsulfonyl-4-(3-pyridylamino)phenyl]thiazol-2-yl]cyclohexyl]carbamate] | 0.009
7 | Cc1ccc(Nc2ccc(-c3cnc(C4CCC(NC(=O)OC(C)C)CC4)s3)c(S(=O)(=O)C3CC3)c2)nc1 (stereo not drawn) [Example 77, isopropyl trans-(4-(5-(2-(cyclopropylsulfonyl)-4-((5-methylpyridin-2-ylamino)phenyl)thiazol-2-yl)cyclohexyl)carbamate] | 0.004
8 | COc1ccc(Nc2ccc(-c3cnc([C@H]4CC[C@H](NC(=O)OC(C)C)CC4)s3)c(S(=O)(=O)C3CC3)c2)nc1 [Example 78, isopropyl trans-(4-(5-(2-(cyclopropylsulfonyl)-4-((5-methoxypyridin-2-yl)amino)phenyl)thiazol-2-yl)cyclohexyl)carbamate] | 0.004
9 | CC(C)OC(=O)N[C@H]1CC[C@H](c2ncc(-c3ccc(Nc4ncccn4)cc3S(=O)(=O)C3CC3)s2)CC1 [Example 79, isopropyl trans-(4-(5-(2-(cyclopropylsulfonyl)-4-(pyrimidin-2-ylamino)phenyl)thiazol-2-yl)cyclohexyl)carbamate] | 0.051
10 | CC(C)OC(=O)NC1CCC(c2ncc(-c3ccc(Nc4ncncn4)cc3S(=O)(=O)C3CC3)s2)CC1 (stereo not drawn) [Example 80, isopropyl trans-N-[4-[5-[2-cyclopropylsulfonyl]-4-(1,3,5-triazin-2-ylamino)phenyl]thiazol-2-yl]cyclohexyl]carbamate] | 0.33
11 | CC(C)OC(=O)N[C@H]1CC[C@H](c2ncc(-c3ccc(Nc4ccc(C(F)(F)F)cn4)cc3S(=N)(=O)C3CC3)s2)CC1 (stereo partly shown) [Example 82] | 0.25
12 | CC(C)OC(=O)N[C@H]1CC[C@H](c2ncc(-c3ccc(Oc4ccccn4)cc3S(=O)(=O)C3CC3)s2)CC1 [Example 83, isopropyl trans-(4-(5-(2-(cyclopropylsulfonyl)-4-(pyridin-2-yloxy)phenyl)thiazol-2-yl)cyclohexyl)carbamate] | 0.2
13 | CC(C)OC(=O)N[C@H]1CC[C@H](c2ncc(-c3ccc(-n4cccn4)cc3S(=O)(=O)C3CC3)s2)CC1 [Example 87, isopropyl trans-N-[4-[5-(2-cyclopropylsulfonyl-4-pyrazol-1-yl-phenyl)thiazol-2-yl]cyclohexyl]carbamate] | 0.29
